Assay results: patent EP0219491B1, “OXINDOLE ALKALOIDS WITH PROPERTIES STIMULATING THE IMMUNITY SYSTEM AND PREPARATIONS CONTAINING THEM” (KEPLINGER, Klaus, priority 1984, dated 1986)

Columns and labels:
Granulozyten = assay: Chemiluminescence test (CL), respiratory burst of phagocytes activated with opsonised Zymosan; type: cell-based
Source text: Obwohl der Granulozytentest nach BRANDT eine zuverlässige Methode zur Ermittlung phagozytosesteigernder Eigenschaften von Substanzen und Extrakten darstellt, ist er sehr zeit- und personalaufwendig. Eine Alternative bietet die neue Methode der Chemilumineszenzmessung phagozytierender Zellen.
Seitdem ALLEN et al. (Biochem. Biophys. Res. Commun, 47,129,1972) als erste die Lichtemission von neutrophilen Granulozyten während der Phagozytose von Latexpartikeln und verschiedener Bakterien entdeckten und NELSON et al. (Infect. Immun 14,129,1976) und WEIDEMANN et al. (FEBS Letters 89,136,1978) CL-Erscheinungen an phagozytierenden Blutmakrophagen (Monozyten) nachweisen konnten, wird diese Reaktion auch in der experimentellen und klinischen Immunologie angewendet. Der genaue Mechanismus der dabei ablaufenden Reaktion konnte allerdings bis heute noch nicht vollständig aufgeklärt werden. Zusammenfassend lässt sich die bei aktivierten Phagozyten auftretende CL folgendermassen darstellen: der Kontakt dieser Zellen mit Bakterien, Viren oder anderem körperfremden Material, z.B. auch chemische Substanzen, führt zunächst zu einer gesteigerten Sauerstoffaufnahme. Anschliessend werden in der Zelle aus dem molekularen Sauerstoff Superoxid-Anion-Radikale O2^- gebildet, die sich dann entweder spontan oder enzymatisch katalysiert in andere aktivierte Sauerstoffmoleküle, wie Wasserstoffperoxid (H202), Singulett-Sauerstoff (^1O2), Hydroxylradikale (OH) und Hypochlorit-Anionen (OCI-) umwandeln. Dieser Vorgang wird «respiratory burst» genannt.
Durch die Freisetzung der aktivierten Sauerstoffmoleküle in die unmittelbare Umgebung der phagozytierenden Zelle, wie auch in die phagozytische Vakuole selbst und durch die Aktivierung lysosomaler Enzyme können eingedrungene Mikroorganismen oder Tumorzellen geschädigt oder getötet werden. Auch andere Moleküle sind daran beteiligt, so z.B. sogenannte kationische Proteine .und Laktoferrin. Die Zellwände der Mikroorganismen werden durch Oxidation oder Reduktion angegriffen und teilweise zerstört. Als Nebeneffekt tritt dabei CL auf, da das Zellwandmaterial als chemilumineszierendes Substrat für die aktivierten Sauerstoffmoleküle dient.
Die geringe Lichtausbeute solcher CL-Reaktionen phagozytierender Zellen wird im in-vitro-Experiment durch den Zusatz von Substanzen erhöht, die durch aktivierten Sauerstoff oxidiert werden und dabei Licht bestimmter Wellenlänge erzeugen, welches physikalisch gemessen werden kann. Als Substrate eignen sich dabei Luminol (5-Amino-2,3-dihydro-1,4-phthalazindion) und Lucigenin (10,10'-Dimethyl-9,9'-biacridiniumdini- trat), welche die CL-Antwort um das 10^3fache steigern.
Durch den Einsatz empfindlicher Messgeräte, in denen die Photonenzählung mit Hilfe von Photomultipliern erfolgt, lässt sich die durch die oben genannten Substanzen verstärkte CL messen. Es wurde ein 6-Kanal-CL-Gerät Biolumat^@ LB 9505 der Fa. Berthold benutzt, das sechs Testungen zur gleichen Zeit ermöglicht. Darüberhinaus erlaubte es das verwendete Gerät auch, die CL-Antwort zeitabhängig zu registrieren. So konnten den Dosis-Wirkungs- Kurven als dritte Dimension die zeitabhängige Wirkung hinzugefügt werden.
Zur in-vitro-Untersuchung des phagozytosesteigenden Wirkung von Substanzen können entweder gereinigte Zellpopulationen von Granulozyten oder Makrophagen verwendet werden, oder die Messung erfolgt direkt in verdünntem Vollblut.
Die Aktivierung der Phagozyten erfolgt dabei durch feste Partikel, z.B. opsonierte Bakterien, Zy- mosan^@ und Latexpartikel, oder durch bestimmte gelöste Substanzen. Bekannte Aktivatoren sind z.B. verschiedene lonophoren und Fluorid-lonen.
• a) Vollblut: 460 µl Veronal®-gepufferte Kochsalzlösung • 200 µl verdünntes Vollblut • 100 pl Lucigenin-Lösung • 200 µl in PBS (phosphat-gepufferte Kochsalzlösung) gelöste Substanz bzw. PBS als Kontrolle • b) PMNL: 630 µl Veronal@-gepufferte Kochsalzlösung • 15 µl PMNL • 100 µl Lucigenin-Lösung 200 µl in PBS gelöste Substanz bzw. PBS als Kontrolle […]

[1] = test system: Granulozytenfraktion (PMNL-Fraktion); assay: Granulocyte test modified after BRANDT (phagocytosis of yeast cells by PMNL); type: cell-based, menschlichen Blut; details: for Wirksamkeit im Granulozytentest: summary in words
Source text: Neutrophile Granulozyten sind zusammen mit Makrophagen die wichtigsten Effektorzellen der Phagozytose und nehmen damit eine wichtige Stellung in der Infektabwehr ein. Sie stellen etwa 60-70% aller weissen Blutkörperchen im menschlichen Blut dar. Der Phagozytoseleistung dieser Granulozyten lässt sich in vitro nach einer von BRANDT (Scand. J. Haematol. Suppl 2, 1967) entwickelten und vonTYMPNER (Münchn. Med. WSchr. 8, 251, 1978) modifizierten Methodik messen.
Dabei wird aus dem Blut gesunder Probanden eine Granulozytenfraktion (PMNL-Fraktion) gewonnen.
Diese PMNL-Fraktion besteht hauptsächlich aus neutrophilen Granulozyten neben wenig eosinophilen und basophilen Granulozyten sowie Lymphozyten, Monozyten und Thrombozyten. Nach Zusatz einer definierten Menge von Hefezellen (Saccharomyces cerevisiae) und der zu testenden Substanz wird zunächst 10 min bei 37° C inkubiert, die Aufschwemmung auf einem Objektträger ausgestrichen und weitere 35 min bei Raumtemperatur inkubiert. Anschliessend werden die Ausstriche angefärbt und mikroskopisch ausgewertet. Pro Objektträger werden 100 PMNL-Zellen ausgewählt und bestimmt, wieviele Hefepartikel von den einzelnen Zellen phagozytiert wurden. Der Phagozytoseindex (PJ) gibt die durchschnittliche Anzahl von phagozytierten Hefepartikeln pro Granulocyt an. Die Steigerung (S) der Phagozytoseaktivität im Blindwert wurde berechnet nach: [formula]

[2] = test system: Asciteszellen von Walker-250-Carcinosarkomen von Ratten; assay: Cytotoxicity by 3H-thymidine incorporation test on ascites cells; type: cell-based; details: Walker 256; 2 mg/ml; read-out: Mittelwert der Methotrexat-Hemmung
Source text: Da im Granulozytentest einige Substanzen in hoher Konzentration die Granulozyten lysierten, wurde auch die zellschädigende Wirkung am Modell des 3H-Thymidineinbautests in Asciteszellen geprüft, um eine mögliche Beziehung zwischen Phagozytosesteigerung und Cytotoxizität auffinden zu können.
In diesem in-vitro-Testsystem nach WEITZEL et al (Hoppe-Seyler's Z. Physiorog. Chem. 348, 433, 1967) kann die Cytotoxizität von Substanzen durch Hemmung der DNA-Synthese von Tumorzellen zahlenmässig durch die veränderten Einbauraten von ^3H-Tymidin in Asciteszellen von […] von Ratten erfasst werden.
Die Ergebnisse wurden mit der Kontrolle verglichen und die Hemmeffekte in Prozent ausgedrückt. Relativierung der Testergebnisse Da die prozentuale Einbauhemmung bei gleichen Substanzen Schwankungen bis zu 30% zwischen einzelnen Versuchen zeigte, wurde Methotrexat®, welches als Folsäureantagonist die DNA-Synthese hemmt, als Bezugssubstanz in jeder Versuchsreihe mitgetestet. Der Mittelwert der Methotrexat®-Hemmung (43% bei 2 mg/ml) wurde zur Ermittlung der relativen Hemmung H der Substanzen herangezogen.

Makrophagen-Phagozytose = assay: In vitro macrophage phagocytosis; type: cell-based; details: Konzentrationen von 10-^4% und 10-^5%

Row | Compound | Wirkung im Granulozytentest ([1]; tested up to 10^-4%) | prozentuelle Phagozytosesteigerung ([1]; Konzentration 10^-2 (in %)) | prozentuelle Phagozytosesteigerung ([1]; Konzentration 10^-3 (in %)) | prozentuelle Phagozytosesteigerung ([1]; Konzentration 10^-4 (in %)) | prozentuelle Phagozytosesteigerung ([1]; Konzentration 10^-5 (in %)) | Wirksamkeit im Granulozytentest [1] | also measured
1 | COc1cccc2c1cc([N+](=O)[O-])c1c(C(=O)O)cc3c(c12)OCO3 [Aristolochiasäure, reference compound] | – | – | – | – | – | – | Steigerung der Phagozytoseaktivität (respiratory burst) (Granulozyten; CL-Test mit isolierten Granulozyten, Na-Salz): dosisabhängige Steigerung der Phagozytoseaktivität
2 | COc1ccc2cc3[n+](cc2c1OC)CCc1cc2c(cc1-3)OCO2 [Berberin, reference compound] | unwirksam | – | – | – | – | – | –
3 | CC[C@@]1(O)C(=O)OCc2c1cc1n(c2=O)Cc2cc3ccccc3nc2-1 [Camotothecin, reference compound] | – | – | – | – | – | – | Wirkung im Granulozytentest ([1]; bis zu Verdünnungen von 10-^6%): keine Wirkungen
4 | O=c1cccc2n1C[C@@H]1CNC[C@H]2C1 [Cytisin, reference compound] | keine Wirkung | – | – | – | – | – | –
5 | C=C[C@]12CN(C)[C@@H]3[C@H]4CO[C@H](C[C@H]41)[C@]1(C(=O)Nc4ccccc41)[C@@H]32 [Gelsemin, reference compound] | – | 22,1% | 40,4% | 33,7% | 8,2% | – | –
6 | COC(=O)C1=CO[C@@H](C)[C@H]2CN3CC[C@@]4(C(=O)Nc5ccccc54)[C@@H]3C[C@H]12 [Isomitraphyllin, normal-Isomitraphyllin] | – | 16,5% | 27,0% | 27,0% | 19,4% | wirksamen | prozentuelle Phagozytosesteigerung ([1]; Konzentration 10^-6 (in %)): 5,7%; prozentuelle Steigerung der CL-Antwort (Granulozyten; Konzentration 10^-3 %): 15,4%; prozentuelle Steigerung der CL-Antwort (Granulozyten; Konzentration 10^-4 %): 15,7%; prozentuelle Steigerung der CL-Antwort (Granulozyten; Konzentration 10^-5 %): 36,1%; prozentuelle Steigerung der CL-Antwort (Granulozyten; Konzentration 10^-6 %): 46,7%; prozentuelle Steigerung der CL-Antwort (Granulozyten; Konzentration 10^-7 %): 18,6%
7 | COC(=O)C1=CO[C@@H](C)[C@@H]2CN3CC[C@@]4(C(=O)Nc5ccccc54)[C@@H]3C[C@H]12 [Isopteropodin, allo-Isopteropodin] | – | 23,4% | 48,7% | 55,0% | 38,2% | wirksamen | prozentuelle Phagozytosesteigerung ([1]; Konzentration 10^-6 (in %)): 28,2%; prozentuelle Phagozytosesteigerung ([1]; Konzentration 10^-7 (in %)): 13,6%; prozentuelle Steigerung der CL-Antwort (Granulozyten; Konzentration 10^-3 %): 67,2%; prozentuelle Steigerung der CL-Antwort (Granulozyten; Konzentration 10^-4 %): 66,0%; prozentuelle Steigerung der CL-Antwort (Granulozyten; Konzentration 10^-5 %): 55,7%; prozentuelle Steigerung der CL-Antwort (Granulozyten; Konzentration 10^-6 %): 68,1%; prozentuelle Steigerung der CL-Antwort (Granulozyten; Konzentration 10^-7 %): 55,3%; prozentuelle Steigerung der CL-Antwort (Granulozyten; Konzentration 10^-8 %): 31,2%
8 | CC[C@H]1CN2CC[C@@]3(C(=O)Nc4ccccc43)[C@@H]2C[C@@H]1/C(=C\OC)C(=O)OC [Isorhynchophyllin] | – | 10,8% | 25,2% | 27,3% | 16,1% | wirksamen | prozentuelle Phagozytosesteigerung ([1]; Konzentration 10^-6 (in %)): 8,8%
9 | CN(Cc1cnc2nc(N)nc(N)c2n1)c1ccc(C(=O)N[C@@H](CCC(=O)O)C(=O)O)cc1 [Methotrexat] | – | – | – | – | – | – | inhibition at 2000 µg/mL [2]: 43%
10 | COC(=O)C1=CO[C@@H](C)[C@H]2CN3CC[C@]4(C(=O)Nc5ccccc54)[C@@H]3C[C@H]12 [Mitraphyllin, normal-Mitraphyllin] | – | – | – | – | – | nicht wirksamen | –
11 | COC(=O)C1=CO[C@@H](C)[C@@H]2CN3CC[C@]4(C(=O)Nc5ccccc54)[C@@H]3C[C@H]12 [Pteropodin, allo-Pteropodin] | – | 11,2% | 21,7% | 26,1% | 23,0% | wirksamen | prozentuelle Steigerung der CL-Antwort (Granulozyten; Konzentration 10^-3 %): 10,6%; prozentuelle Steigerung der CL-Antwort (Granulozyten; Konzentration 10^-4 %): 10,0%; prozentuelle Steigerung der CL-Antwort (Granulozyten; Konzentration 10^-5 %): 23,7%; prozentuelle Steigerung der CL-Antwort (Granulozyten; Konzentration 10^-6 %): 15,4%
12 | CC[C@H]1CN2CC[C@]3(C(=O)Nc4ccccc43)[C@@H]2C[C@@H]1/C(=C\OC)C(=O)OC [Rhynchophyllin] | – | – | – | – | – | nicht wirksamen | –
13 | C1CCN2C[C@@H]3C[C@@H](CN4CCCC[C@@H]34)[C@H]2C1 [Spartein, reference compound] | keine Wirkung | – | – | – | – | – | –
14 | COC(=O)C1=CO[C@@H](C)[C@@H]2CN3CC[C@@]4(C(=O)Nc5ccccc54)[C@H]3C[C@H]12 [Speciophyllin, reference compound] | – | 10,5% | 18,5% | 26,0% | 35,3% | – | –
15 | CC[C@]1(O)C[C@H]2CN(CCc3c([nH]c4ccccc34)[C@@](C(=O)OC)(c3cc4c(cc3OC)N(C=O)[C@H]3[C@@](O)(C(=O)OC)[C@H](OC(C)=O)[C@]5(CC)C=CCN6CC[C@]43[C@@H]65)C2)C1 [Vincristin, reference compound] | – | – | – | – | – | – | Wirkung im Granulozytentest ([1]; bis zu Verdünnungen von 10-^6%): keine Wirkungen; in-vitro-Hemmung der Makrophagen-Phagozytose (Makrophagen-Phagozytose): in-vitro-Hemmung der Makrophagen-Phagozytose
16 | Huangshanin [reference compound] | Negativ | – | – | – | – | – | –
17 | Thalifaberin [reference compound] | Negativ | – | – | – | – | – | –
18 | Thalifabin [reference compound] | Negativ | – | – | – | – | – | –
